Target: T1, Recombinant human liver GK1 (GST-GK) (Homo sapiens, UniProt P35557)
T1 construct: made in house; host or cells: E. coli
T1 sequence (P35557 1-466 isoform P35557-2): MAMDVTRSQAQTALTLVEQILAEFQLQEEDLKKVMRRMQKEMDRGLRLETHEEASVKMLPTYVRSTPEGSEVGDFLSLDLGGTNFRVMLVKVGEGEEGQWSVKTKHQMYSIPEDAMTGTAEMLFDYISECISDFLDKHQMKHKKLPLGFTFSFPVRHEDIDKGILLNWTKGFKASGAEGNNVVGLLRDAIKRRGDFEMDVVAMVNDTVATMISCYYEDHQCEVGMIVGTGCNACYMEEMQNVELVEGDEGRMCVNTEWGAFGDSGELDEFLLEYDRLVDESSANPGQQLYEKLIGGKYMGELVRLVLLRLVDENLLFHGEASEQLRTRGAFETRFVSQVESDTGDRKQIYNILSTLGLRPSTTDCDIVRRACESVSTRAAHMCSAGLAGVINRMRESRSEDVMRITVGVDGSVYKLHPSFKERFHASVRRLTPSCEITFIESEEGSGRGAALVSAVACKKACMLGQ
Experiment: Glucokinase in vitro assay (G6PDH-coupled NADH generation, OD340)
Type: biochemical
Conditions: 5 mM D-glucose; for SC1.5 average (concentration of activator that produced a 50% increase in the activity of GK): 30° C., pH 7.1, 10% DMSO; for fold activation @ 30 uM: 30 uM test compound
Outline: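 GST-tagged recombinant GK1 expressed in E. coli, run at 30° C, pH 7.1 Hepes with 5 mM D-glucose, 1 mM ATP and 1.8 mM NAD, G6PDH-coupled. Compounds were in 10% DMSO final, with a 10 min pre-incubation before enzyme addition. OD340/min rate measured; SC1.5 is the activator concentration giving a 50% increase in activity.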

SC1.5 average (concentration of activator that produced a 50% increase in the activity of GK) [µM]	fold activation @ 30 uM [fold]	Structure (SMILES)
5.88		Cc1ccccc1Oc1cnn([C@H](CC2CCCC2)C(=O)Nc2ccn(CC(C)(C)O)n2)c(=O)c1 [Example 24B, (R)-3-Cyclopentyl-N-[1-(2-hydroxy-2-methyl-propyl)-1H-pyrazol-3-yl]-2-(6-oxo-4-o-tolyloxy-6H-pyridazin-1-yl)-propionamide]
0.502		CC(C)(O)Cn1ccc(NC(=O)[C@H](CC2CCCC2)n2ncc(Oc3ccc(F)cc3F)cc2=O)n1 [Example 32A, (S)-3-Cyclopentyl-2-[4-(2,4-difluoro-phenoxy)-6-oxo-6H-pyridazin-1-yl]-N-[1-(2-hydroxy-2-methyl-propyl)-1H-pyrazol-3-yl]-propionamide]
9.14		CC(C)(O)Cn1ccc(NC(=O)[C@@H](CC2CCCC2)n2ncc(Oc3cccc4c3CCCC4)cc2=O)n1 [Example 17B, (R)-3-Cyclopentyl-N-[1-(2-hydroxy-2-methyl-propyl)-1H-pyrazol-3-yl]-2-[6-oxo-4-(5,6,7,8-tetrahydro-naphthalen-1-yloxy)-6H-pyridazin-1-yl]-propionamide]
0.499		CC(C)(O)Cn1ccc(NC(=O)C(CC2CCCC2)n2ncc(Oc3cccc4cccnc34)cc2=O)n1 (stereo not drawn) [Example 39, 3-Cyclopentyl-N-[1-(2-hydroxy-2-methyl-propyl)-1H-pyrazol-3-yl]-2-[6-oxo-4-(quinolin-8-yloxy)-6H-pyridazin-1-yl]-propionamide]
26.027		CC(C)(O)Cn1ccc(NC(=O)[C@@H](CC2CCCC2)n2ncc(Oc3ccccc3N3CCCC3)cc2=O)n1 [Example 26B, (R)-3-Cyclopentyl-N-[1-(2-hydroxy-2-methyl-propyl)-1H-pyrazol-3-yl]-2-[6-oxo-4-(2-pyrrolidin-1-yl-phenoxy)-6H-pyridazin-1-yl]-propionamide]
0.844		CC(C)(O)Cn1ccc(NC(=O)C(CC2CCCC2)n2ncc(Oc3cccc(C(F)(F)F)c3)cc2=O)n1 (stereo not drawn) [Example 6, 3-Cyclopentyl-N-[1-(2-hydroxy-2-methyl-propyl)-1H-pyrazol-3-yl]-2-[6-oxo-4-(3-trifluoromethyl-phenoxy)-6H-pyridazin-1-yl]-propionamide]
> 30	1.22	CC(C)(O)Cn1ccc(NC(=O)[C@@H](CC2CCCC2)n2ncc(Oc3ccccc3C3CCCC3)cc2=O)n1 [Example 22B, (R)-3-Cyclopentyl-2-[4-(2-cyclopentyl-phenoxy)-6-oxo-6H-pyridazin-1-yl]-N-[1-(2-hydroxy-2-methyl-propyl)-1H-pyrazol-3-yl]-propionamide]
0.033		O=C(O)c1ccc(NC(=O)[C@H](CC2CCCC2)n2ncc(Oc3ccccc3F)cc2=O)nc1 [Example 75A, 6-{(S)-3-Cyclopentyl-2-[4-(2-fluoro-phenoxy)-6-oxo-6H-pyridazin-1-yl]-propionylamino}-nicotinic acid]
0.093		O=C(Nc1ccn(C[C@@H](O)CO)n1)C(CC1CCCC1)n1ncc(Oc2ccccc2Cl)cc1=O (stereo partly drawn) [Example 128, 2-[4-(2-Chloro-phenoxy)-6-oxo-6H-pyridazin-1-yl]-3-cyclopentyl-N-[1-((R)-2,3-dihydroxy-propyl)-1H-pyrazol-3-yl]-propionamide]
0.263		CC(C)(O)Cn1ccc(NC(=O)[C@H](CC2CCCC2)n2ncc(Oc3ccccc3C3CCCC3)cc2=O)n1 [Example 22A, (S)-3-Cyclopentyl-2-[4-(2-cyclopentyl-phenoxy)-6-oxo-6H-pyridazin-1-yl]-N-[1-(2-hydroxy-2-methyl-propyl)-1H-pyrazol-3-yl]-propionamide]
0.265		CC(C)(O)Cn1ccc(NC(=O)[C@H](CC2CCCC2)n2ncc(Oc3cc(F)ccc3F)cc2=O)n1 [Example 33A, (S)-3-Cyclopentyl-2-[4-(2,5-difluoro-phenoxy)-6-oxo-6H-pyridazin-1-yl]-N-[1-(2-hydroxy-2-methyl-propyl)-1H-pyrazol-3-yl]-propionamide]
0.868		CC(C)(O)Cn1ccc(NC(=O)C(CC2CCCC2)n2ncc(Oc3ccccc3-c3ccccc3)cc2=O)n1 (stereo not drawn) [Example 23, 2-[4-(Biphenyl-2-yloxy)-6-oxo-6H-pyridazin-1-yl]-3-cyclopentyl-N-[1-(2-hydroxy-2-methyl-propyl)-1H-pyrazol-3-yl]-propionamide]
0.067		Cc1ccccc1Oc1cnn(C(CC2CCCC2)C(=O)Nc2ccc(C(=O)O)cn2)c(=O)c1 (stereo not drawn) [Example 74, 6-[3-Cyclopentyl-2-(6-oxo-4-o-tolyloxy-6H-pyridazin-1-yl)-propionylamino]-nicotinic acid]
1.221		CC(C)CC(C(=O)Nc1ccn(C[C@@H](O)CO)n1)n1ncc(Oc2cccc(C(F)(F)F)c2Cl)cc1=O (stereo partly drawn) [Example 126, 2-[4-(2-Chloro-3-trifluoromethyl-phenoxy)-6-oxo-6H-pyridazin-1-yl]-4-methyl-pentanoic acid [1-((R)-2,3-dihydroxy-propyl)-1H-pyrazol-3-yl]-amide]
0.066		O=C(Nc1ccn(CCO)n1)[C@H](CC1CCCC1)n1ncc(Oc2c(F)cccc2F)cc1=O [Example 60A, (S)-3-Cyclopentyl-2-[4-(2,6-difluoro-phenoxy)-6-oxo-6H-pyridazin-1-yl]-N-[1-(2-hydroxy-ethyl)-1H-pyrazol-3-yl]-propionamide]
0.008		COC(=O)c1ccc(NC(=O)[C@H](CC2CCCC2)n2ncc(Oc3c(F)cccc3F)cc2=O)nc1 [Example 68A, 6-{(S)-3-Cyclopentyl-2-[4-(2,6-difluoro-phenoxy)-6-oxo-6H-pyridazin-1-yl]-propionylamino}-nicotinic acid methyl ester]
0.153		O=C(Nc1ccn(CCO)n1)C(CC1CCCCC1)n1ncc(Oc2c(F)cccc2F)cc1=O (stereo not drawn) [Example 56, 3-Cyclohexyl-2-[4-(2,6-difluoro-phenoxy)-6-oxo-6H-pyridazin-1-yl]-N-[1-(2-hydroxy-ethyl)-1H-pyrazol-3-yl]-propionamide]
0.507		O=C(O)c1ccc(NC(=O)[C@@H](CC2CCCC2)n2ncc(Oc3c(F)cccc3F)cc2=O)nc1 [Example 73B, 6-{(R)-3-Cyclopentyl-2-[4-(2,6-difluoro-phenoxy)-6-oxo-6H-pyridazin-1-yl]-propionylamino}-nicotinic acid]
0.466		CC(C)(O)Cn1ccc(NC(=O)C(Cc2c(F)cccc2F)n2ncc(Oc3c(F)cccc3F)cc2=O)n1 (stereo not drawn) [Example 50, 2-[4-(2,6-Difluoro-phenoxy)-6-oxo-6H-pyridazin-1-yl]-3-(2,6-difluoro-phenyl)-N-[1-(2-hydroxy-2-methyl-propyl)-1H-pyrazol-3-yl]-propionamide]
5.981		CC(C)C[C@H](C(=O)Nc1ccn(CC(C)(C)O)n1)n1ncc(Oc2c(F)cccc2F)cc1=O [Example 42B, (R)-2-[4-(2,6-Difluoro-phenoxy)-6-oxo-6H-pyridazin-1-yl]-4-methyl-pentanoic acid [1-(2-hydroxy-2-methyl-propyl)-1H-pyrazol-3-yl]-amide]
0.5		CC(C)(O)Cn1ccc(NC(=O)C(CC2CCCC2)n2ncc(Oc3ccccc3C(C)(C)C)cc2=O)n1 (stereo not drawn) [Example 90, 2-[4-(2-tert-Butyl-phenoxy)-6-oxo-6H-pyridazin-1-yl]-3-cyclopentyl-N-[1-(2-hydroxy-2-methyl-propyl)-1H-pyrazol-3-yl]-propionamide]
8.414		CC(C)(O)Cn1ccc(NC(=O)C(CC2CCCC2)n2ncc(Oc3ccccc3C(=O)N3CCCC3)cc2=O)n1 (stereo not drawn) [Example 41, 3-Cyclopentyl-N-[1-(2-hydroxy-2-methyl-propyl)-1H-pyrazol-3-yl]-2-{6-oxo-4-[2-(pyrrolidine-1-carbonyl)-phenoxy]-6H-pyridazin-1-yl}-propionamide]
> 30	1.18	CC(=O)OC(C)Cn1nc(NC(=O)C(CC2CCOCC2)n2ncc(Oc3c(F)cccc3F)cc2=O)cc1C (stereo not drawn) [Example 131, Acetic acid 2-{3-[2-[4-(2,6-difluoro-phenoxy)-6-oxo-6H-pyridazin-1-yl]-3-(tetrahydro-pyran-4-yl)-propionylamino]-5-methyl-pyrazol-1-yl}-1-methyl-ethyl ester]

Structure (SMILES)	SC1.5 average (concentration of activator that produced a 50% increase in the activity of GK) [µM]	fold activation @ 30 uM [fold]
O=C(Nc1ccn(C[C@@H](O)CO)n1)C(CC1CCCC1)n1ncc(OC2CCC2)cc1=O (stereo partly drawn) [Example 94, 2-(4-Cyclobutoxy-6-oxo-6H-pyridazin-1-yl)-3-cyclopentyl-N-[1-((R)-2,3-dihydroxy-propyl)-1H-pyrazol-3-yl]-propionamide]	> 30	1.33

Reference: patent publication US8258134B2, “Pyridazinone glucokinase activators” (Hoffmann-La Roche Inc., priority 2008, dated 2012)
